# Legend:
# [1] = test system: Rh. Oryzae; assay: Sensitivity of microscopic fungi in solution (colonies after exposure); type: cell-based
# Experimental: For the preparation of inoculum, were respectively used pure (2-5) days cultures of yeast and mycelial fungi, grown on Saburo's dense nutrient broth. Inoculum for plating was prepared in different ways, depending on the type of fungi. Thus, yeast crops (C. albicans) were prepared by washing the culture from an agar stroke. Cultures of mycelial fungi (Rh. oryzae, Asp. fumigatus) were pre-degraded in a pounder. A suspension of microorganisms was prepared in a sterile isotonic sodium chloride solution, bringing the inoculum density to 5 UNITS (GISK [State Research Institute of Standardization and Control] named after L. A. Tarasevich) or according to the McFarland standard 1 UNIT with a concentration of at least 1×10^6 CFU/ml, considering that the size of the fungal elements is approximately 10 times the size of bacteria (this provided the possibility of creating a mixture of biocide with suspension, the concentration of microorganisms of the order of 1×10^5 CFU/ml).
# Solutions of compound I, miramistin, and benzalkonium chloride in working concentrations (0.1%, 0.2%, 0.3%) were poured into sterile 0.9 ml tubes. 0.1 ml of microbial suspension was added to test tubes with disinfectant solutions and mixed by shaking for several seconds. The exposition lasted for 1, 5, and 15 minutes. After required temporary exposure for action of the disinfectant, 0.5 ml of the neutralizer solution was added and mixed by shaking.
# Then, 0.1 ml of the mixture was inoculated on a dense nutrient medium and the plates with inoculate were placed in a thermostat with a temperature of 27° C. for (2-4) days for yeast and (5-7) days for mycelial fungi, respectively.
# After the time required for the cultivation of microorganisms of this species, the results were counted according to the number of colonies grown on the Petri dish. In the absence of growth, the time for culturing microorganisms was increased by a factor of 2. The grown colonies were subjected to microscopy.
# The tested substances were studied on clinical and archival strains of yeast and mycelial fungi. As comparison drugs, drugs commonly used in clinical practice were used: miramistin and benzalconium chloride. After the required exposure time for action of the disinfectant, a series of 0.1 ml mixture was aseptically plated on the surface of a dense nutrient medium in Petri dishes. After the time of cultivation of microorganisms, the results were counted according to the number of colonies grown on the Petri dish.
# [2] = test system: P.aeruginosa in the biofilm; assay: Antibacterial activity against cells immersed in a biofilm matrix (CFU, drop plate); type: cell-based; conditions: 24 hours
# Experimental: To determine the effectiveness of the antibiotic against bacteria in […], bacteria were grown in Basal medium for 3 days at a temperature of 37° C. without swinging to obtain a dense biofilm [A. R Kayumov, Khakimullina E., Sharafutdinov I, Trizna E., Latypova L., Lien Thi, Margulis A., Bogachev M, Kurbangalieva A. Inhibition of biofilm formation in Bacillus subtilis by new halogenated furanoses. J. Antibiotics.—2014.—V. 68.—No 5.—P. 297-301.]. Then the biofilm was washed with a sterile 0.9% NaCl solution and fresh sterile medium was poured. Antiseptics were added to concentrations (1-16)×MBC (minimum bactericidal concentration) and incubated for 24 hours. Then the culture fluid was removed from the wells, washed once with 0.9% NaCl solution to remove non-adherent cells, and cell viability in biofilms was evaluated by counting CFU by Drop plate analysis [B. Herigstad, M Hamilton, J. Heersink How to optimize the drop plate method for enumerating bacteria. J Microbiol Methods.—2001.—V. 44.—P. 121-129]. To do this, the biofilm was mechanically removed from the surface and homogenized in 0.9% NaCl by pipetting and ultrasonic treatment. Then, serial 10-fold dilutions of the bacterial suspension in 0.9% NaCl were prepared, and 5 μI of each suspension were transferred to plates with dense nutrient medium. CFU was counted from drops containing 5-10 colonies.
# The results of the study of antimicrobial activity against cells of the studied strains immersed in the biofilm matrix, in comparison with miramistin and benzalkonium chloride, are presented in FIGS. 1 and 2.
Compound,"Number of colonies grown in a Petri dish ([1]; exposure 1 min, 0.1% solution)",excess of MBC giving a decrease in the number of CFU by 3 orders of magnitude [2],"Number of colonies grown in a Petri dish ([1]; exposure 1 min, 0.2% solution)","Number of colonies grown in a Petri dish ([1]; exposure 1 min, 0.3% solution)","Number of colonies grown in a Petri dish ([1]; exposure 5 min, 0.1% solution)","Number of colonies grown in a Petri dish ([1]; exposure 5 min, 0.2% solution)","Number of colonies grown in a Petri dish ([1]; exposure 15 min, 0.1% solution)"
alkyldimethyl(phenylmethyl) ammonium chloride [Benzalconium chloride],1,16 times,,,,,
"CCCCCCCCCCCC[N+](C)(C)Cc1cnc(C[N+](C)(C)CCCCCCCCCCCC)c2c1COC(CC)O2 (centres unmarked) [Compound I, 5,8-(Bis(methylene (N, N-dimethyl-N-dodecylammonium))-2-ethyl-4H-[1,3]dioxino [4,5-c]pyridiniumdichloride]",1,4-8 times,,,,,
"CCCCCCCCCCCCCC(=O)NCCC[N+](C)(C)Cc1ccccc1.O.[Cl-] [Miramistin, benzyldimethyl [3-(myristoylamino)propyl]-ammonium chloride monohydrate]",12,16 times,2,1,10,4,2

# From patent publication US11014934B2, “Antiseptic drug” (AO “TATKHIMFARMPREPARATY”, priority 2017, dated 2021)
